# Measured values: ChEMBL document CHEMBL1201861, “Genomics of Drug Sensitity in Cancer screening data, Wellcome Trust Sanger Institute”
# Columns and labels:
# Test in all cases: cells
# DEL = format: functional, cell-based; conditions: Homo sapiens;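 also: growth inhibition of the human DEL cell line, read out with a cell viability assay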
# Description: SANGER: Inhibition of human DEL cell growth in a cell viability assay.
# ES8 = format: functional, cell-based, Homo sapiens; conditions: Homo sapiens, ES8;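 also: growth inhibition of human ES8 cells, read out with a cell viability assay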
# Description: SANGER: Inhibition of human ES8 cell growth in a cell viability assay.
# KYSE-410 = format: functional, cell-based, Homo sapiens; conditions: Homo sapiens, KYSE-410;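 also: growth inhibition of KYSE-410 cells, measured through a cell viability readout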
# Description: SANGER: Inhibition of human KYSE-410 cell growth in a cell viability assay.
# MZ1-PC = format: functional, cell-based, Homo sapiens; conditions: Homo sapiens, MZ1-PC;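 also: cell viability assay measuring growth inhibition of human MZ1-PC cells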
# Description: SANGER: Inhibition of human MZ1-PC cell growth in a cell viability assay.
# KYSE-70 cell line = format: functional, cell-based, Homo sapiens; conditions: Homo sapiens, KYSE-70;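 also: cell viability assay read-out, with IC50 expressing suppression of KYSE-70 cell growth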
# Description: SANGER: Inhibition of human KYSE-70 cell growth in a cell viability assay.
# C3A = format: functional, cell-based, Homo sapiens; conditions: Homo sapiens, C3A;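 also: growth inhibition of C3A human cells, quantified with a cell viability readout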
# Description: SANGER: Inhibition of human C3A cell growth in a cell viability assay.
# MHH-PREB-1 = format: functional, cell-based; conditions: Homo sapiens;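 also: cell viability assay measuring inhibition of proliferation of human MHH-PREB-1 cells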
# Description: SANGER: Inhibition of human MHH-PREB-1 cell growth in a cell viability assay.
# T98G = format: functional, cell-based, Homo sapiens; conditions: Homo sapiens, T98G;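 also: growth inhibition of T98G cells, read out by a cell viability assay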
# Description: SANGER: Inhibition of human T98G cell growth in a cell viability assay.
# NB5 = format: functional, cell-based, Homo sapiens; conditions: Homo sapiens, NB5;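 also: growth inhibition of NB5 cells, read out as cell viability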
# Description: SANGER: Inhibition of human NB5 cell growth in a cell viability assay.
# 8305C = format: functional, cell-based, Homo sapiens; conditions: Homo sapiens, 8305C
# Description: SANGER: Inhibition of human 8305C cell growth in a cell viability assay.
# LU-99A = format: functional, cell-based, Homo sapiens; conditions: Homo sapiens, LU-99A;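 also: growth inhibition of LU-99A cells, read out with a cell viability assay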
# Description: SANGER: Inhibition of human LU-99A cell growth in a cell viability assay.
# BB49-HNC = format: functional, cell-based, Homo sapiens; conditions: Homo sapiens, BB49-HNC;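 also: cell viability assay read-out, reported as inhibition of BB49-HNC cell growth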
# Description: SANGER: Inhibition of human BB49-HNC cell growth in a cell viability assay.
# KE-37 = format: functional, cell-based; conditions: Homo sapiens;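 also: growth inhibition of KE-37 cells, read out with a cell viability assay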
# Description: SANGER: Inhibition of human KE-37 cell growth in a cell viability assay.
# EW-13 = format: functional, cell-based; conditions: Homo sapiens;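 also: growth inhibition of EW-13 cells, read out with a cell viability assay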
# Description: SANGER: Inhibition of human EW-13 cell growth in a cell viability assay.
# MKN-28 = format: functional, cell-based, Homo sapiens; conditions: Homo sapiens, MKN-28;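 also: cell viability assay read-out, IC50 reflects suppression of growth of human MKN-28 cells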
# Description: SANGER: Inhibition of human MKN28 cell growth in a cell viability assay.
# SNU-449 = format: functional, cell-based, Homo sapiens; conditions: Homo sapiens, SNU-449
# Description: SANGER: Inhibition of human SNU-449 cell growth in a cell viability assay.
# MEG-01 = format: functional, cell-based; conditions: Homo sapiens;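 also: growth inhibition of MEG-01 cells, read out by a cell viability assay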
# Description: SANGER: Inhibition of human MEG-01 cell growth in a cell viability assay.
# C-33-A = format: functional, cell-based, Homo sapiens; conditions: Homo sapiens, C-33-A;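 also: cell viability assay measuring growth inhibition of C-33-A cells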
# Description: SANGER: Inhibition of human C-33-A cell growth in a cell viability assay.
# IST-MEL1 = format: functional, cell-based, Homo sapiens; conditions: Homo sapiens, IST-MEL1;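 also: growth inhibition of the cell line, read out with a cell viability assay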
# Description: SANGER: Inhibition of human IST-MEL1 cell growth in a cell viability assay.
# Detroit 562 = format: functional, cell-based, Homo sapiens; conditions: Homo sapiens, Detroit 562;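 also: growth inhibition of human Detroit 562 cells, read out by a cell viability assay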
# Description: SANGER: Inhibition of human Detroit562 cell growth in a cell viability assay.
# NCI-H526 = format: functional, cell-based; conditions: Homo sapiens;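 also: growth inhibition of the human NCI-H526 cell line, measured by a cell viability assay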
# Description: SANGER: Inhibition of human NCI-H526 cell growth in a cell viability assay.
# A498 = format: functional, cell-based, Homo sapiens; conditions: Homo sapiens, A498;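 also: growth inhibition of human A498 cells, read out with a cell viability assay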
# Description: SANGER: Inhibition of human A498 cell growth in a cell viability assay.
# NCI-H2126 = format: functional, cell-based, Homo sapiens; conditions: Homo sapiens, NCI-H2126;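 also: growth inhibition of the cancer cell line, determined with a cell viability readout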
# Description: SANGER: Inhibition of human NCI-H2126 cell growth in a cell viability assay.
# LC-2-ad = format: functional, cell-based, Homo sapiens; conditions: Homo sapiens, LC-2-ad;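 also: growth inhibition of human LC-2-ad cells, read out with a cell viability assay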
# Description: SANGER: Inhibition of human LC-2-ad cell growth in a cell viability assay.
# HuO-3N1 = format: functional, cell-based, Homo sapiens; conditions: Homo sapiens, HuO-3N1;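 also: cell viability readout used to measure how strongly compounds suppress proliferation of human HuO-3N1 cells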
# Description: SANGER: Inhibition of human HuO-3N1 cell growth in a cell viability assay.
# HO-1-N-1 = format: functional, cell-based, Homo sapiens; conditions: Homo sapiens, HO-1-N-1;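 also: growth inhibition of human HO-1-N-1 cells, read out with a cell viability assay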
# Description: SANGER: Inhibition of human HO-1-N-1 cell growth in a cell viability assay.
# NCI-H1693 = format: functional, cell-based, Homo sapiens; conditions: Homo sapiens, NCI-H1693;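 also: growth inhibition of the human cell line, read out with a cell viability assay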
# Description: SANGER: Inhibition of human NCI-H1693 cell growth in a cell viability assay.
# KNS-42 = format: functional, cell-based, Homo sapiens; conditions: Homo sapiens, KNS-42;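 also: growth inhibition of KNS-42 cells, read out with a cell viability assay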
# Description: SANGER: Inhibition of human KNS-42 cell growth in a cell viability assay.
# HT-3 = format: functional, cell-based, Homo sapiens; conditions: Homo sapiens, HT-3;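 also: growth inhibition measured with a cell viability readout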
# Description: SANGER: Inhibition of human HT-3 cell growth in a cell viability assay.
# CAL-27 = format: functional, cell-based, Homo sapiens; conditions: Homo sapiens, CAL-27;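 also: Viability-based readout, IC50 reflecting inhibition of CAL-27 cell growth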
# Description: SANGER: Inhibition of human CAL-27 cell growth in a cell viability assay.
# BB30-HNC = format: functional, cell-based, Homo sapiens; conditions: Homo sapiens, BB30-HNC;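 also: growth inhibition of the cultured cell line, read out by a cell viability assay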
# Description: SANGER: Inhibition of human BB30-HNC cell growth in a cell viability assay.
# VM-CUB-1 = format: functional, cell-based; conditions: Homo sapiens;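 also: cell viability assay measuring growth inhibition of the human VM-CUB-1 cell line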
# Description: SANGER: Inhibition of human VM-CUB-1 cell growth in a cell viability assay.
# SBC-1 = format: functional, cell-based; conditions: Homo sapiens;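 also: cell viability assay measuring growth inhibition of the SBC-1 cell line, IC50 being the concentration that halves growth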
# Description: SANGER: Inhibition of human SBC-1 cell growth in a cell viability assay.
# SK-MEL-24 = format: functional, cell-based; conditions: Homo sapiens;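 also: growth inhibition read out by a cell viability assay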
# Description: SANGER: Inhibition of human SK-MEL-24 cell growth in a cell viability assay.
# ETK-1 = format: functional, cell-based, Homo sapiens; conditions: Homo sapiens, ETK-1;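 also: growth inhibition of human ETK-1 cells, read out with a cell viability assay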
# Description: SANGER: Inhibition of human ETK-1 cell growth in a cell viability assay.
# ES4 = format: functional, cell-based, Homo sapiens; conditions: Homo sapiens, ES4;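 also: growth inhibition of human ES4 cells, read out by a cell viability assay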
# Description: SANGER: Inhibition of human ES4 cell growth in a cell viability assay.
# BHT-101 = format: functional, cell-based, Homo sapiens; conditions: Homo sapiens, BHT-101
# Description: SANGER: Inhibition of human BHT-101 cell growth in a cell viability assay.
# LS-513 = format: functional, cell-based, Homo sapiens; conditions: Homo sapiens, LS-513
# Description: SANGER: Inhibition of human LS-513 cell growth in a cell viability assay.
# LOX IMVI = format: functional, cell-based; conditions: Homo sapiens
# Description: SANGER: Inhibition of human LOXIMVI cell growth in a cell viability assay.
# CHP-212 = format: functional, cell-based, Homo sapiens; conditions: Homo sapiens, CHP-212
# Description: SANGER: Inhibition of human CHP-212 cell growth in a cell viability assay.
# SW48 = format: functional, cell-based, Homo sapiens; conditions: Homo sapiens, SW48;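 also: growth inhibition of SW48 cells, read out with a cell viability assay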
# Description: SANGER: Inhibition of human SW48 cell growth in a cell viability assay.
# DB = format: functional, cell-based; conditions: Homo sapiens
# Description: SANGER: Inhibition of human DB cell growth in a cell viability assay.
# KLE = format: functional, cell-based, Homo sapiens; conditions: Homo sapiens, KLE;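 also: growth inhibition of human KLE cells, read out with a cell viability assay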
# Description: SANGER: Inhibition of human KLE cell growth in a cell viability assay.
# COLO-679 = format: functional, cell-based, Homo sapiens; conditions: Homo sapiens, COLO-679
# Description: SANGER: Inhibition of human COLO-679 cell growth in a cell viability assay.
# A2780 = format: functional, cell-based, Homo sapiens; conditions: Homo sapiens, A2780;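 also: growth inhibition of A2780 cells, read out with a cell viability assay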
# Description: SANGER: Inhibition of human A2780 cell growth in a cell viability assay.
# SW-620 = format: functional, cell-based, Homo sapiens; conditions: Homo sapiens, SW-620;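 also: growth inhibition of human SW-620 cells, measured by a cell viability assay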
# Description: SANGER: Inhibition of human SW620 cell growth in a cell viability assay.
# NCI-H520 = format: functional, cell-based, Homo sapiens; conditions: Homo sapiens, NCI-H520;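 also: growth inhibition of NCI-H520 cells, measured by a cell viability assay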
# Description: SANGER: Inhibition of human NCI-H520 cell growth in a cell viability assay.
# MHH-ES-1 = format: functional, cell-based, Homo sapiens; conditions: Homo sapiens, MHH-ES-1;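 also: cell growth inhibition measured by a cell viability assay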
# Description: SANGER: Inhibition of human MHH-ES-1 cell growth in a cell viability assay.
# CAL-51 = format: functional, cell-based, Homo sapiens; conditions: Homo sapiens, CAL-51;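 also: human CAL-51 cell line, growth inhibition read out via a cell viability assay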
# Description: SANGER: Inhibition of human CAL-51 cell growth in a cell viability assay.
# YKG-1 = format: functional, cell-based, Homo sapiens; conditions: Homo sapiens, YKG-1;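 also: cell growth inhibition, read out with a viability assay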
# Description: SANGER: Inhibition of human YKG-1 cell growth in a cell viability assay.
# SW13 = format: functional, cell-based, Homo sapiens; conditions: Homo sapiens, SW13;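 also: IC50 is inhibition of SW13 cell growth, read out with a cell viability assay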
# Description: SANGER: Inhibition of human SW13 cell growth in a cell viability assay.
# CAL-62 = format: functional, cell-based, Homo sapiens; conditions: Homo sapiens, CAL-62;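 also: growth inhibition of CAL-62 cells, read out with a cell viability assay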
# Description: SANGER: Inhibition of human CAL-62 cell growth in a cell viability assay.
smiles,measurement,setting,value
CCOc1nc(NC(=O)Cc2cc(OC)ccc2OC)cc(N)c1C#N,IC50,DEL,> 10 µM
same,IC50,ES8,> 10 µM
same,IC50,KYSE-410,> 10 µM
same,IC50,MZ1-PC,> 10 µM
same,IC50,KYSE-70 cell line,> 10 µM
same,IC50,C3A,> 10 µM
same,IC50,MHH-PREB-1,> 10 µM
same,IC50,T98G,> 10 µM
same,IC50,NB5,> 10 µM
same,IC50,8305C,> 10 µM
same,IC50,LU-99A,> 10 µM
same,IC50,BB49-HNC,> 10 µM
same,IC50,KE-37,> 10 µM
same,IC50,EW-13,> 10 µM
same,IC50,MKN-28,> 10 µM
same,IC50,SNU-449,> 10 µM
same,IC50,MEG-01,> 10 µM
same,IC50,C-33-A,> 10 µM
same,IC50,IST-MEL1,> 10 µM
same,IC50,Detroit 562,> 10 µM
same,IC50,NCI-H526,> 10 µM
same,IC50,A498,> 10 µM
same,IC50,NCI-H2126,> 10 µM
same,IC50,LC-2-ad,> 10 µM
same,IC50,HuO-3N1,> 10 µM
same,IC50,HO-1-N-1,> 10 µM
same,IC50,NCI-H1693,> 10 µM
same,IC50,KNS-42,> 10 µM
same,IC50,HT-3,> 10 µM
same,IC50,CAL-27,> 10 µM
same,IC50,BB30-HNC,> 10 µM
same,IC50,VM-CUB-1,> 10 µM
same,IC50,SBC-1,> 10 µM
same,IC50,SK-MEL-24,> 10 µM
same,IC50,ETK-1,> 10 µM
same,IC50,ES4,> 10 µM
same,IC50,BHT-101,> 10 µM
same,IC50,LS-513,> 10 µM
same,IC50,LOX IMVI,> 10 µM
same,IC50,CHP-212,> 10 µM
same,IC50,SW48,> 10 µM
same,IC50,DB,> 10 µM
same,IC50,KLE,> 10 µM
same,IC50,COLO-679,> 10 µM
same,IC50,A2780,> 10 µM
same,IC50,SW-620,> 10 µM
same,IC50,NCI-H520,> 10 µM
same,IC50,MHH-ES-1,> 10 µM
same,IC50,CAL-51,> 10 µM
same,IC50,YKG-1,> 10 µM
same,IC50,SW13,> 10 µM
same,IC50,CAL-62,> 10 µM
CC(=O)O[C@@H]1[C@@H](OC(C)=O)[C@@H](O)[C@H](Oc2c(-c3ccc(O)cc3)oc3cc(O)cc(O)c3c2=O)O[C@H]1C,IC50,DEL,> 10 µM
same,IC50,ES8,> 10 µM
same,IC50,KYSE-410,> 10 µM
same,IC50,MZ1-PC,> 10 µM
same,IC50,KYSE-70 cell line,> 10 µM
same,IC50,C3A,> 10 µM
same,IC50,MHH-PREB-1,> 10 µM
same,IC50,T98G,> 10 µM
same,IC50,NB5,> 10 µM
same,IC50,8305C,> 10 µM
same,IC50,LU-99A,> 10 µM
same,IC50,BB49-HNC,> 10 µM
same,IC50,KE-37,> 10 µM
same,IC50,EW-13,> 10 µM
same,IC50,MKN-28,> 10 µM
same,IC50,SNU-449,> 10 µM
same,IC50,MEG-01,> 10 µM
same,IC50,C-33-A,> 10 µM
same,IC50,IST-MEL1,> 10 µM
same,IC50,Detroit 562,> 10 µM
same,IC50,NCI-H526,> 10 µM
same,IC50,A498,> 10 µM
same,IC50,NCI-H2126,> 10 µM
same,IC50,LC-2-ad,> 10 µM
same,IC50,HuO-3N1,2.78 µM
same,IC50,HO-1-N-1,> 10 µM
same,IC50,NCI-H1693,> 10 µM
same,IC50,KNS-42,> 10 µM
same,IC50,HT-3,> 10 µM
same,IC50,CAL-27,> 10 µM
same,IC50,BB30-HNC,> 10 µM
same,IC50,VM-CUB-1,> 10 µM
same,IC50,SBC-1,> 10 µM
same,IC50,SK-MEL-24,> 10 µM
same,IC50,ETK-1,> 10 µM
same,IC50,ES4,> 10 µM
same,IC50,BHT-101,> 10 µM
same,IC50,LS-513,> 10 µM
same,IC50,LOX IMVI,> 10 µM
same,IC50,CHP-212,> 10 µM
same,IC50,SW48,> 10 µM
same,IC50,DB,> 10 µM
same,IC50,KLE,> 10 µM
same,IC50,COLO-679,> 10 µM
same,IC50,A2780,> 10 µM
same,IC50,SW-620,> 10 µM
same,IC50,NCI-H520,> 10 µM
same,IC50,MHH-ES-1,> 10 µM
same,IC50,CAL-51,> 10 µM
same,IC50,YKG-1,> 10 µM
same,IC50,SW13,> 10 µM
same,IC50,CAL-62,> 10 µM
O=C1N=C(NCc2cccs2)S/C1=C\c1ccc2ncccc2c1,IC50,DEL,> 5 µM
same,IC50,ES8,> 5 µM
same,IC50,KYSE-410,> 5 µM
same,IC50,MZ1-PC,> 5 µM
same,IC50,KYSE-70 cell line,> 5 µM
same,IC50,C3A,> 5 µM
same,IC50,MHH-PREB-1,> 5 µM
same,IC50,T98G,1.37 µM
same,IC50,NB5,> 5 µM
same,IC50,8305C,> 5 µM
same,IC50,LU-99A,> 5 µM
same,IC50,BB49-HNC,> 5 µM
same,IC50,KE-37,> 5 µM
same,IC50,EW-13,> 5 µM
same,IC50,MKN-28,> 5 µM
same,IC50,SNU-449,> 5 µM
same,IC50,MEG-01,> 5 µM
same,IC50,C-33-A,> 5 µM
same,IC50,IST-MEL1,> 5 µM
same,IC50,Detroit 562,> 5 µM
same,IC50,NCI-H526,> 5 µM
same,IC50,A498,> 5 µM
same,IC50,NCI-H2126,> 5 µM
same,IC50,LC-2-ad,> 5 µM
same,IC50,HuO-3N1,> 5 µM
same,IC50,HO-1-N-1,> 5 µM
same,IC50,NCI-H1693,> 5 µM
same,IC50,KNS-42,> 5 µM
same,IC50,HT-3,> 5 µM
same,IC50,CAL-27,> 5 µM
same,IC50,BB30-HNC,> 5 µM
same,IC50,VM-CUB-1,> 5 µM
same,IC50,SBC-1,> 5 µM
same,IC50,SK-MEL-24,> 5 µM
same,IC50,ETK-1,> 5 µM
same,IC50,ES4,> 5 µM
same,IC50,BHT-101,> 5 µM
same,IC50,LS-513,> 5 µM
same,IC50,LOX IMVI,> 5 µM
same,IC50,CHP-212,> 5 µM
same,IC50,SW48,> 5 µM
same,IC50,DB,> 5 µM
same,IC50,KLE,> 5 µM
same,IC50,COLO-679,> 5 µM
same,IC50,A2780,> 5 µM
same,IC50,SW-620,> 5 µM
same,IC50,NCI-H520,> 5 µM
same,IC50,MHH-ES-1,> 5 µM
same,IC50,CAL-51,> 5 µM
same,IC50,YKG-1,> 5 µM
same,IC50,SW13,> 5 µM
same,IC50,CAL-62,> 5 µM
COC(=O)CNC(=O)C(=O)OC,IC50,DEL,72.3 µM
same,IC50,ES8,673 µM
same,IC50,KYSE-410,20.8 µM
same,IC50,MZ1-PC,46 µM
same,IC50,KYSE-70 cell line,551 µM
same,IC50,C3A,159 µM
same,IC50,MHH-PREB-1,137 µM
same,IC50,T98G,666 µM
same,IC50,NB5,> 4000 µM
same,IC50,8305C,603 µM
same,IC50,LU-99A,197 µM
same,IC50,BB49-HNC,611 µM
same,IC50,KE-37,43.3 µM
same,IC50,EW-13,39 µM
same,IC50,MKN-28,1120 µM
same,IC50,SNU-449,92.5 µM
same,IC50,MEG-01,484 µM
same,IC50,C-33-A,> 4000 µM
same,IC50,IST-MEL1,573 µM
same,IC50,Detroit 562,507 µM
same,IC50,NCI-H526,536 µM
same,IC50,A498,663 µM
same,IC50,NCI-H2126,1800 µM
same,IC50,LC-2-ad,24.6 µM
same,IC50,HuO-3N1,701 µM
same,IC50,HO-1-N-1,1070 µM
same,IC50,NCI-H1693,3790 µM
same,IC50,KNS-42,229 µM
same,IC50,HT-3,853 µM
same,IC50,CAL-27,> 4000 µM
same,IC50,BB30-HNC,148 µM
same,IC50,VM-CUB-1,151 µM
same,IC50,SBC-1,1410 µM
same,IC50,SK-MEL-24,> 4000 µM
same,IC50,ETK-1,525 µM
same,IC50,ES4,1150 µM
same,IC50,BHT-101,> 4000 µM
same,IC50,LS-513,1850 µM
same,IC50,LOX IMVI,344 µM
same,IC50,CHP-212,181 µM
same,IC50,SW48,1990 µM
same,IC50,DB,52.4 µM
same,IC50,KLE,1580 µM
same,IC50,COLO-679,157 µM
same,IC50,A2780,2030 µM
same,IC50,SW-620,3230 µM
same,IC50,NCI-H520,398 µM
same,IC50,MHH-ES-1,115 µM
same,IC50,CAL-51,238 µM
same,IC50,YKG-1,767 µM
same,IC50,SW13,639 µM
same,IC50,CAL-62,1050 µM
